Earlier results, collected in article PMC11360046 (ACS Omega, 2024).

Test system: BRD4 BD2
Settings: read-out: IC50 BRD4 BD2; I-58

IC50: 1.88 nM
SMILES: CN1CCC(Nc2cccc(CN3c4ccccc4C=C4c5c(cccc53)C(=O)N4C)c2)CC1 [Compound I-58, 1-methyl-6-(3-((1-methylpiperidin-4-yl)amino)benzyl)-1,6-dihydro-2H-benzo[6,7]azepino[4,3,2-cd]isoindol-2-one]
